Source: patent US10383861B2, “3-(1H-pyrrolo[2,3-C]pyridin-2-yl)-1H-pyrazolo[3,4-C]pyridines and therapeutic uses thereof” (Samumed, LLC, priority 2015, dated 2019)

Legend:
Format in all cases: cell-based
IL-6 = IL-6 inhibition in LPS-stimulated THP-1 cells (HTRF); conditions: Homo sapiens; for inhibition at 10 µM: THP-1, read-out: percent inhibition at 10 μM; for EC50: THP-1 cells, LPS 500 ng/mL, 22 hours, IL6 HTRF
Procedure: THP-1 cells were cultured in basal media with 1% FBS for 24 hours before the start of the assay. […] THP-1 cells were plated at 5000 cells/well in the 384-well plates and incubated at 37° C. for 2 h. 500 ng/mL of LPS was added after 2 hours and cells were incubated for another 22 hours at 37° C. Plates were spun in a centrifuge for 1 minute at […] and a mixture of anti-IL6 XL665, and anti-IL6 Cryptate diluted in reconstitution buffer (Cisbio Inc.) was added to each well. Following incubation for 3 hrs at room temperature, Homogeneous Time-Resolved Fluorescence (HTRF) was measured using the Envision (Perkin Elmer) at 665 nm and […]. The ratio of fluorescence at 665 nm to 620 nm was used as a readout for IL6 quantification. All samples were processed in duplicate. Readings were normalized to DMSO treated cells and normalized activities were utilized for EC50 calculations using the dose-response log (inhibitor) vs. response -variable slope (four parameters) nonlinear regression feature available in GraphPad Prism 5.0 (or Dotmatics).

[1] = system: primary human fibroblasts derived from IPF patients (LL29 cells); assay: Inhibition of the fibrotic process: αSMA staining in TGF-β1 treated LL29 fibroblasts; conditions: Fibroblast; for EC50: 96 h, LL29 cells, TGF-β1 20 ng/mL, 4 days, % αSMA positive cells; for inhibition at 10 µM: read-out: percent inhibition at 10 μM
Procedure: Representative compounds were screened using primary human fibroblasts (derived from IPF patients) treated with TGF-β1 to determine their ability to inhibit the fibrotic process.
LL29 cells are plated at 1,500 cells/well in 80 μL/well F12 medium supplemented with 1% Fetal Bovine Serum. […] Wells treated with TGF-β1 and containing DMSO were used as controls. […] Following incubation for 4 days, SYTOX green nucleic acid stain (Life Technologies [Thermo Fisher Scientific]) was added to the wells at a final concentration of 1 μM and incubated at room temperature for 30 min.

SW480 colon cancer cells = assay: Cell viability assay (CellTiter-Blue) in SW480 colon cancer cells; conditions: Homo sapiens; for EC50: 96 h, SW480 cell viability, four days, CellTiter-Blue; for inhibition at 10 µM: SW480, read-out: percent inhibition at 10 μM
Procedure: Representative compounds were screened using the following assay procedure to assess the effect on cell viability as described below.
Approximately 2×10^3 SW480 colon cancer cells were seeded into each well and allowed to incubate in the presence or absence of compound for four days at 37° C./5% CO2. Eight replicates of DMSO-treated cells served as controls and cells treated with compound were performed in duplicate.
After incubation, 20 μL of CellTiter-Blue (Promega) was added to each well allowed to incubate for approximately 3 hours. This reagent was a buffered solution which contains resazurin, metabolically active cells were able to reduce rezarurin (blue) into resorufin (pink) which was highly fluorescent. This measured fluorescence was used as a readout for cell viability.

Wnt activity = Wnt activity screening assay, Sp5-Luc reporter gene in SW480 cells; conditions: Homo sapiens; for EC50: Sp5-Luc reporter, SW480 cells, overnight incubation; for inhibition at 10 µM: SW480, read-out: percent inhibition at 10 μM
Description: The screening assay for Wnt activity is described as follows. Reporter cell lines can be generated by stably transducing cancer cell lines (e.g., colon cancer) or primary cells (e.g., IEC-6 intestinal cells) with a lentiviral construct that includes a Wnt-responsive promoter driving expression of the firefly luciferase gene.
SW480 colon carcinoma cells were transduced with a lentiviral vector expressing luciferase with a human Sp5 promoter consisting of a sequence of eight TCF/LEF binding sites. SW480 cells stably expressing the Sp5-Luc reporter gene and a hygromycin resistance gene were selected by treatment with 150 μg/mL of hygromycin for 7 days. These stably transduced SW480 cells were expanded in cell culture and used for all further screening activities. […] For Sp5-Luc reporter gene assays, the cells were plated at 4,000 cells/well in 384-well plates with medium containing 1% fetal bovine serum and incubated overnight at 37° C. and 5% CO2. Following incubation, 20 μl of BrightGlo luminescence reagent (Promega) was added to each well of the 384-well assay plates. The plates were placed on an orbital shaker for 2 min and then luminescence was quantified using the Envision (Perkin Elmer) plate reader. Readings were normalized to DMSO only treated cells, and normalized activities were utilized for EC50 calculations using the dose-response log (inhibitor) vs. response -variable slope (four parameters) nonlinear regression feature available in GraphPad Prism 5.0 (or Dotmatics).

| Compound | EC50 (IL-6) | EC50 (SW480 colon cancer cells) | EC50 (Wnt activity) | inhibition at 10 µM (IL-6) | EC50 [1] | inhibition at 10 µM [1] | inhibition at 10 µM (SW480 colon cancer cells) | inhibition at 10 µM (Wnt activity) |
| --- | --- | --- | --- | --- | --- | --- | --- | --- |
| CC(C)(C)C(=O)Nc1cncc(-c2cc3c(-c4cc5c(-c6ccc(F)cc6)cncc5[nH]4)n[nH]c3cn2)c1 [Compound 36, N-(5-(3-(4-(4-Fluorophenyl)-1H-pyrrolo[2,3-c]pyridin-2-yl)-1H-pyrazolo[3,4-c]pyridin-5-yl)pyridin-3-yl)pivalamide] | > 10 µM | 1.1 µM | 1.59 µM | 29.6% | 0.299 µM | – | – | – |
| CC(C)(C)CC(=O)Nc1cncc(-c2cc3c(-c4cc5c(-c6ccccc6F)cncc5[nH]4)n[nH]c3cn2)c1 [Compound 72, N-(5-(3-(4-(2-Fluorophenyl)-1H-pyrrolo[2,3-c]pyridin-2-yl)-1H-pyrazolo[3,4-c]pyridin-5-yl)pyridin-3-yl)-3,3-dimethylbutanamide] | 0.805 µM | 0.693 µM | 0.975 µM | – | 0.468 µM | – | – | – |
| O=C(Cc1ccccc1)Nc1cncc(-c2cc3c(-c4cc5c(-c6cccnc6)cncc5[nH]4)n[nH]c3cn2)c1 [Compound 94, 2-Phenyl-N-(5-(3-(4-(pyridin-3-yl)-1H-pyrrolo[2,3-c]pyridin-2-yl)-1H-pyrazolo[3,4-c]pyridin-5-yl)pyridin-3-yl)acetamide] | 3.05 µM | > 10 µM | > 10 µM | – | > 10 µM | 0% | 28.9% | 12.2% |
| CN(C)c1cncc(-c2cc3c(-c4cc5c(-c6cccc(F)c6)cncc5[nH]4)n[nH]c3cn2)c1 [Compound 7, 5-(3-(4-(3-Fluorophenyl)-1H-pyrrolo[2,3-c]pyridin-2-yl)-1H-pyrazolo[3,4-c]pyridin-5-yl)-N,N-dimethylpyridin-3-amine] | 9.84 µM | 1.26 µM | 2.33 µM | – | 1.04 µM | – | – | – |
| O=C(Nc1cncc(-c2cc3c(-c4cc5c(-c6ccc(F)cc6)cncc5[nH]4)n[nH]c3cn2)c1)C1CCC1 [Compound 49, N-(5-(3-(4-(4-Fluorophenyl)-1H-pyrrolo[2,3-c]pyridin-2-yl)-1H-pyrazolo[3,4-c]pyridin-5-yl)pyridin-3-yl)cyclobutanecarboxamide] | > 10 µM | > 10 µM | 3.65 µM | 42.5% | 3.04 µM | – | 36% | – |

Continued, in another order:

| EC50 (IL-6) | EC50 (SW480 colon cancer cells) | EC50 (Wnt activity) | Compound | inhibition at 10 µM (IL-6) | EC50 [1] | inhibition at 10 µM [1] | inhibition at 10 µM (SW480 colon cancer cells) | inhibition at 10 µM (Wnt activity) |
| --- | --- | --- | --- | --- | --- | --- | --- | --- |
| > 10 µM | > 10 µM | > 10 µM | CC(C)CC(=O)Nc1cncc(-c2cc3c(-c4cc5c(-c6ccncc6)cncc5[nH]4)n[nH]c3cn2)c1 [Compound 114, 3-Methyl-N-(5-(3-(4-(pyridin-4-yl)-1H-pyrrolo[2,3-c]pyridin-2-yl)-1H-pyrazolo[3,4-c]pyridin-5-yl)pyridin-3-yl)butanamide] | 11.6% | > 10 µM | 23% | 14.2% | 15.1% |
| > 10 µM | > 10 µM | > 10 µM | O=C(Nc1cncc(-c2cc3c(-c4cc5c(-c6ccncc6)cncc5[nH]4)n[nH]c3cn2)c1)c1ccccc1 [Compound 123, N-(5-(3-(4-(Pyridin-4-yl)-1H-pyrrolo[2,3-c]pyridin-2-yl)-1H-pyrazolo[3,4-c]pyridin-5-yl)pyridin-3-yl)benzamide] | 19% | > 10 µM | 53.6% | 20.9% | 8% |
| > 10 µM | 3.95 µM | 5.51 µM | c1cc(-c2cc3c(-c4cc5c(N6CCCCC6)cncc5[nH]4)n[nH]c3cn2)ccn1 [Compound 186, 3-(4-(Piperidin-1-yl)-1H-pyrrolo[2,3-c]pyridin-2-yl)-5-(pyridin-4-yl)-1H-pyrazolo[3,4-c]pyridine] | 20.1% | 4.87 µM | – | – | – |
| 3.58 µM | 0.82 µM | 2.86 µM | CN(C)c1cncc(-c2cc3c(-c4cc5ccncc5[nH]4)n[nH]c3cn2)c1 [Compound 259, 5-(3-(1H-Pyrrolo[2,3-c]pyridin-2-yl)-1H-pyrazolo[3,4-c]pyridin-5-yl)-N,N-dimethylpyridin-3-amine] | – | 0.606 µM | – | – | – |
